Experimental data as given in US4499082A, “α-Aminoboronic acid peptides” (E. I. Du Pont de Nemours and Company, priority 1983, dated 1985).
Blank lines part the entries; values can stand above or below the compound they belong to.

What was measured:
Format in all cases: biochemical
neutrophil elastase = biological target: T1, neutrophil elastase (Homo sapiens, UniProt P08246); assay: Inhibition of neutrophil elastase, additional peptide inhibitors preincubated in phosphate buffer (Table 3); design: Neutrophil elastase was prepared by the procedure described by Baugh. et al; from tissue
T1 sequence (P08246 30-267): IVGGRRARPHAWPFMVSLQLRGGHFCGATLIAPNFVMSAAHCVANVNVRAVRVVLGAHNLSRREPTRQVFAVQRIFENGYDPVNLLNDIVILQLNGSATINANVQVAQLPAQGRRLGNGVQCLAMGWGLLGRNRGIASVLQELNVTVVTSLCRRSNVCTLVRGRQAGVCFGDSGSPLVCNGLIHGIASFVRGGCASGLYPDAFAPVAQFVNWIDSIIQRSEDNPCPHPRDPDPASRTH
Method: Additional peptide inhibitors were evaluated by a procedure similar to that described above. Stock solutions of inhibitors (1.00 mM) were prepared in dimethylsulfoxide and compounds were diluted to 0.10 mM with […], pH 7.5, yielding the free boronic acid. After incubation for one hour at about 23°, inhibitors were added to assay solutions (2.00 mL) consisting of […] MeOSuc-Ala-AlaProVal-p-nitroanilide in 0.10M Hepes buffer, pH 7.5, containing 0.50M NaCl. Assays were initiated by addition of 0.50 μg neutrophil elastase. Control assays without inhibitor indicated an initial velocity of 0.0195 min^-1. The value "k" in Table 3, below, is an estimate of the first order rate constant for time-dependent inhibition, as described above for MeOSuc-AlaAlaPro-Boroval-OH (Table 1).

porcine pepsin = porcine pepsin (Sus scrofa, UniProt P00791); assay: Inhibition of pepsin; conditions: Conc. 5.0 × 10^-4 M
Sequence of porcine pepsin (P00791 60-385): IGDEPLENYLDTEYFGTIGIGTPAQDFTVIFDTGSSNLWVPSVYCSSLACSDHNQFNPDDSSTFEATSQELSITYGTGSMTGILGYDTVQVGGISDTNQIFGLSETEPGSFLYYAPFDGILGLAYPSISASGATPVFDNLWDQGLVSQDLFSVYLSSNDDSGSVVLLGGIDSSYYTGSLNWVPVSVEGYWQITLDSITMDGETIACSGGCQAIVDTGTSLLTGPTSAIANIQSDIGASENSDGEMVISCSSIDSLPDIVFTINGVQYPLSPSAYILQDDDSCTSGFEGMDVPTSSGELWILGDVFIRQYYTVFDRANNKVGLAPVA
Method: Pepsin activity was assayed by a procedure substantially similar to that described by Rich, et al., Biochem. Pharmac. 29:2205 (1980). Substrate, […].2 trifluoroacetate, and porcine pepsin were obtained from commercial sources. Assay solutions, in a volume of 2.00 mL, contained 2.0×10^-4 M substrate in 0.040M sodium formate buffer, pH 4.0, and 0.050 mL of inhibitor solutions in dimethylsulfoxide. Assays were initiated by addition of 0.020 mL of pepsin (0.10 mg/mL), and hydrolysis of substrate was monitored by measuring the increase in absorbance at 310 nm on a spectrophotometer.

α-chymotrypsin = biological target: T2, α-chymotrypsin (Bos taurus, UniProt P00766); assay: Titration of α-chymotrypsin
T2 construct: purchased
Method: In these experiments, α-chymotrypsin, obtained from commercial sources, was standardized by titration with various concentrations of MeOSuc-AlaAlaPro-Borophe-diethanolamine. In each case, enzyme was incubated with inhibitor for 5 minutes at 23°, in 0.01M Hepes buffer, pH 7.5, containing 0.50M NaCl and 10% dimethylsulfoxide. Aliquots were then removed and assayed for enzyme activity.

thermolysin = biological target: T3, thermolysin (Bacillus thermoproteolyticus, UniProt P00800); assay: Inhibition of thermolysin; conditions: Conc. 5.0 × 10^-4 M
T3 construct: purchased
T3 sequence (P00800 233-548): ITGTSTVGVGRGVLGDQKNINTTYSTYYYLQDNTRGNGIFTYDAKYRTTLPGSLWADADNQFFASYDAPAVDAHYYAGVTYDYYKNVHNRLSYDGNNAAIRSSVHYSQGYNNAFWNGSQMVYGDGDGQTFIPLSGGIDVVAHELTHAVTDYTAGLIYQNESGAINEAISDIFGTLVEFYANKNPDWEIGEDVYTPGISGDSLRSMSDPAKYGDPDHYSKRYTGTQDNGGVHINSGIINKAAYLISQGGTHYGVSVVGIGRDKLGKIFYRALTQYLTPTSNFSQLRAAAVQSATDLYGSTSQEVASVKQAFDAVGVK
Method: The metalloenzyme thermolysin was assayed by a procedure substantially similar to that described by Feder et al., Biochemistry 9:2784 (1970). Substrate, furylacryloyl-glycyl-leucinamide, and thermolysin were obtained from commercial sources. Assay solutions consisted of furylacryloyl-glycyl-leucinamide (0.100 mL, 8.0×10^-3 M in N,N-dimethylformamide) and 1.90 mL of 0.50M Tris buffer, pH 7.5, containing 0.10M NaCl and 0.010M CaCl2. Either 0.100 mL of dimethylsulfoxide or 0.100 mL of dimethylsulfoxide containing inhibitor was added and the reaction was initiated by the addition of 0.020 mL of thermolysin (1.0 mg/mL). The rate of hydrolysis was monitored by measuring the decrease in absorbance at 345 nm.

[1] = biological target: Porcine pancreatic elastase (Sus scrofa, UniProt P00772); assay: Inhibition of pancreatic elastase
Sequence of Porcine pancreatic elastase (P00772 27-266): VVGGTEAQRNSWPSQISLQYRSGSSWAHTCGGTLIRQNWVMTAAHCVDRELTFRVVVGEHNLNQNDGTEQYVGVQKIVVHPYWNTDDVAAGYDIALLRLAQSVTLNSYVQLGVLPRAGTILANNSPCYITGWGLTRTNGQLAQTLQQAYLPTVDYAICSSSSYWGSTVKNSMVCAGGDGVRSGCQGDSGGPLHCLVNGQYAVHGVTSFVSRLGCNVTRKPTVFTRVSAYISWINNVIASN
Method: Porcine pancreatic elastase (9.8 U/mg.) was obtained from commercial sources. […] Reactions were initiated by addition of 0.5 μg of elastase in 0.020 mL of 0.020M sodium acetate buffer, pH 6.0, and hydrolysis of substrate was monitored spectrophotometrically at 405 nm at 25° C. Assay results are set forth in Table 4, below, expressed as percentages of activity of control mixtures to which no inhibitor was added: […]

% Initial Activity (neutrophil elastase; Conc. 1.0 × 10^-7 M): 61%
k, first order rate constant for time-dependent inhibition (neutrophil elastase; Conc. 1.0 × 10^-7 M): 0.20 min⁻¹
SMILES: CC(C)C(NC(=O)C(CCC(=O)OCc1ccccc1)NC(=O)CNC(=O)C(Cc1ccccc1)NC(=O)OCc1ccccc1)B(O)O (stereo not shown) [Z--Phe--Gly--Glu(OBzl)--Boroval--OH]

% Initial Activity (neutrophil elastase; Conc. 5.0 × 10^-8 M): 59%
k, first order rate constant for time-dependent inhibition (neutrophil elastase; Conc. 5.0 × 10^-8 M): 0.54 min⁻¹
SMILES: COC(=O)CCC(=O)NC(CCCCNC(=O)OCc1ccccc1)C(=O)NC(C)C(=O)N1CCCC1C(=O)NC(B(O)O)C(C)C (stereo not shown) [MeOSuc--Lys(Z)--Ala--Pro--Boroval--OH, MeOSuc--Lys(Z)--AlaPro--Boroval--OH]

% Initial Activity (neutrophil elastase; Conc. 2.0 × 10^-7 M): 62%
k, first order rate constant for time-dependent inhibition (neutrophil elastase; Conc. 2.0 × 10^-7 M): 0.26 min⁻¹
SMILES: CC(C)CC(NC(=O)CNC(=O)C(Cc1ccccc1)NC(=O)OCc1ccccc1)C(=O)NC(B(O)O)C(C)C (stereo not shown) [Z--Phe--Gly--Leu--Boroval--OH]

% Initial Activity (neutrophil elastase; Conc. 1.0 × 10^-6 M): 52%
k, first order rate constant for time-dependent inhibition (neutrophil elastase; Conc. 1.0 × 10^-6 M): 0.18 min⁻¹
SMILES: COC(=O)CCC(=O)NC(Cc1ccccc1)C(=O)NCC(=O)NC(CCC(=O)O)C(=O)NC(B(O)O)C(C)C (stereo not shown) [MeOSuc--Phe--Gly--Glu--Boroval--OH]

% Initial Activity (neutrophil elastase; Conc. 2.0 × 10^-7 M): 47%
k, first order rate constant for time-dependent inhibition (neutrophil elastase; Conc. 2.0 × 10^-7 M): 0.18 min⁻¹
SMILES: CC(C)C(NC(=O)C(Cc1ccccc1)NC(=O)CNC(=O)C(Cc1ccccc1)NC(=O)OCc1ccccc1)B(O)O (stereo not shown) [Z--Phe--Gly--Phe--Boroval--OH]

% Initial Activity (neutrophil elastase; Conc. 2.0 × 10^-7 M): 54%
k, first order rate constant for time-dependent inhibition (neutrophil elastase; Conc. 2.0 × 10^-7 M): 0.35 min⁻¹
SMILES: CC(C)C(NC(=O)C1CCCN1C(=O)C(Cc1ccccc1)NC(=O)OC(C)(C)C)B(O)O [Boc--D-Phe--Pro--Boroval--OH]

% Initial Activity (neutrophil elastase; Conc. 5.0 × 10^-7 M): 78%
k, first order rate constant for time-dependent inhibition (neutrophil elastase; Conc. 5.0 × 10^-7 M): 0.26 min⁻¹
SMILES: COC(=O)CCC(=O)N[C@@H](Cc1ccccc1)C(=O)NCC(=O)N[C@@H](CO)C(=O)NC(B(O)O)C(C)C (stereo partly shown) [MeOSuc--Phe--Gly--Ser--Boroval--OH]

% Initial Activity (neutrophil elastase; Conc. 1.0 × 10^-6 M): 75%
SMILES: CC(C)C(NC(=O)C(CO)NC(=O)CNC(=O)C(N)Cc1ccccc1)B(O)O (stereo not shown) [H--Phe--Gly--Ser--Boroval--OH]

% Initial Activity (neutrophil elastase; Conc. 4.0 × 10^-6 M): 51%
SMILES: CC(NC(=O)C1CCCN1C(=O)C(Cc1ccccc1)NC(=O)OCc1ccccc1)C(=O)NC(B(O)O)C(C)C (stereo not shown) [Z--Phe--Pro--Ala--Boroval--OH]

% Initial Activity (neutrophil elastase; Conc. 1.25 × 10^-7 M): 66%
k, first order rate constant for time-dependent inhibition (neutrophil elastase; Conc. 1.25 × 10^-7 M): 0.17 min⁻¹
SMILES: CC(C)C(NC(=O)C(COCc1ccccc1)NC(=O)CNC(=O)C(Cc1ccccc1)NC(=O)OCc1ccccc1)B(O)O (stereo not shown) [Z--Phe--Gly--Ser(OBzl)--Boroval--OH]

% Initial Activity (neutrophil elastase; Conc. 2.5 × 10^-7 M): 67%
k, first order rate constant for time-dependent inhibition (neutrophil elastase; Conc. 2.5 × 10^-7 M): 0.28 min⁻¹
SMILES: CC(C)C(NC(=O)C(CCCCN)NC(=O)CNC(=O)C(Cc1ccccc1)NC(=O)OCc1ccccc1)B(O)O (stereo not shown) [Z--Phe--Gly--Lys--Boroval--OH]

% Initial Activity (neutrophil elastase; Conc. 2.0 × 10^-7 M): 55%
k, first order rate constant for time-dependent inhibition (neutrophil elastase; Conc. 2.0 × 10^-7 M): 0.37 min⁻¹
SMILES: CC(C)C(NC(=O)C(CCCCNC(=O)OC(C)(C)C)NC(=O)CNC(=O)C(Cc1ccccc1)NC(=O)OCc1ccccc1)B(O)O (stereo not shown) [Z--Phe--Gly--Lys(Boc)--Boroval--OH]

% Initial Activity (neutrophil elastase; Conc. 2.0 × 10^-6 M): 54%
SMILES: CC(C)C(NC(=O)C(CCC(=O)O)NC(=O)CNC(=O)C(N)Cc1ccccc1)B(O)O (stereo not shown) [H--Phe--Gly--Glu--Boroval--OH]

Further lines, the compound ahead of its results:

SMILES: CCC(C)C(NC(=O)C1CCCN1C(=O)C(C)NC(=O)C(C)NC(=O)CCC(=O)OC)B(O)O (stereo not shown) [MeOSuc--Ala--Ala--Pro--Boroile--OH]
% Initial Activity (neutrophil elastase; Conc. 1.0 × 10^-7 M): 60%
k, first order rate constant for time-dependent inhibition (neutrophil elastase; Conc. 1.0 × 10^-7 M): 0.28 min⁻¹

SMILES: CC(C)CC(NC(=O)CNC(=O)C(Cc1ccccc1)NC(=O)OC(C)(C)C)B1OC(C)(C)C(C)(C)O1 (stereo not shown) [Boc--Phe--Gly--Boroleu--pinacol, Boc-PheGly-Boroleu-pinacol]
% Activity (porcine pepsin): 68%

SMILES: COC(=O)CCC(=O)NC(C)C(=O)NC(C)C(=O)N1CCCC1C(=O)NC(Cc1ccccc1)B1OCCNCCO1 (stereo not shown) [MeOSuc-AlaAlaPro-Borophe-diethanolamine]
% Activity (α-chymotrypsin; α-chymotrypsin 3 μg/mL, inhibitor 25 nM): 68.2%
% Activity (α-chymotrypsin; α-chymotrypsin 3 μg/mL, inhibitor 50 nM): 52.3%
% Activity (α-chymotrypsin; α-chymotrypsin 3 μg/mL, inhibitor 75 nM): 31.8%
% Activity (α-chymotrypsin; α-chymotrypsin 3 μg/mL, inhibitor 100 nM): 18.2%
% Activity (α-chymotrypsin; α-chymotrypsin 15 μg/mL, inhibitor 50 nM): 93.8%
% Activity (α-chymotrypsin; α-chymotrypsin 15 μg/mL, inhibitor 100 nM): 80.4%
% Activity (α-chymotrypsin; α-chymotrypsin 15 μg/mL, inhibitor 200 nM): 65.1%
% Activity (α-chymotrypsin; α-chymotrypsin 15 μg/mL, inhibitor 300 nM): 47.9%
% Activity (α-chymotrypsin; α-chymotrypsin 15 μg/mL, inhibitor 400 nM): 31.6%
% Activity (α-chymotrypsin; α-chymotrypsin 15 μg/mL, inhibitor 500 nM): 15.3%

SMILES: CC(NC(=O)C(C)NC(=O)OC(C)(C)C)B1OC(C)(C)C(C)(C)O1 (stereo not drawn) [Boc--Ala--Boroala--pinacol, Boc-Ala-Boroala-pinacol]
% Activity (porcine pepsin): 90%
% Activity (thermolysin): 102%

SMILES: CC(C)C[C@H](NC(=O)CNC(=O)[C@@H](N)Cc1ccccc1)B1OC(C)(C)C(C)(C)O1.O=C(O)C(F)(F)F [H--Phe--Gly--Boroleu--pinacol, H-PheGly-Boroleu-pinacol.trifluoroacetate]
% Activity (porcine pepsin): 69%

SMILES: CC(C)CC(NC(=O)CNC(=O)OC(C)(C)C)B1OCCNCCO1 (stereo not drawn) [Boc--Gly--Boroleu--diethanolamine, Boc-Gly-Boroleu-diethanolamine]
% Activity (porcine pepsin): 90%

SMILES: CC(C)CC(NC(=O)CNC(=O)C(Cc1ccccc1)NC(=O)OC(C)(C)C)B1OCCNCCO1 (stereo not shown) [Boc--Phe--Gly--Boroleu--diethanolamine, Boc-PheGly-Boroleu-diethanolamine]
% Activity (porcine pepsin): 71%

SMILES: CC(C)CC(NC(=O)CNC(=O)OC(C)(C)C)B1OC(C)(C)C(C)(C)O1 (stereo not drawn) [Boc--Gly--Boroleu--pinacol, Boc-Gly-Boroleu-pinacol]
% Activity (porcine pepsin): 87%

SMILES: COC(=O)CCC(=O)N[C@@H](C)C(=O)N[C@@H](C)C(=O)N1CCC[C@H]1C(=O)NC(C)B1OCCNCCO1 (stereo partly shown) [MeOSuc-AlaAlaPro-Boroala-diethanolamine]
capacity for inhibition of pancreatic elastase, crystalline versus amorphous sample ([1]; crystalline sample relative to amorphous sample of Example 9): at least 5 fold

SMILES: CC(NC(=O)C(C)NC(=O)OC(C)(C)C)B1OCCNCCO1 (stereo not drawn) [Boc--Ala--Boroala--diethanolamine, Boc-Ala-Boroala-diethanolamine]
Activity % of Control ([1]; inhibitor 5.0 × 10^5 nM, 1.0 min, time dependency not observed): 67 % of Control
% Activity (porcine pepsin): 85%
% Activity (thermolysin): 99%
